Consider 38 compounds from ChEMBL document CHEMBL5543108, “Structure-based design and synthesis of BML284 derivatives: A novel class of colchicine-site noncovalent tubulin degradation agents” (Eur J Med Chem, 2024).

One assay relates to K562. Description: Antiproliferative activity against human K562 cells assessed as reduction in cell viability measured after 72 hrs. It is filed as functional, cell-based. The conditions noted are these: K562, 72 h.
In another assay the test system is MOLM-13. Description: Antiproliferative activity against human MOLM-13 cells assessed as reduction in cell viability measured after 72 hrs. Type of assay: functional, cell-based. To be noted: MOLM-13, 72 h.
In another assay the test system is HeLa. Description: Antiproliferative activity against human HeLa cells assessed as reduction in cell viability measured after 72 hrs. Type of assay: functional, cell-based.
A further assay concerns MCF7. Description: cells. To be noted: Homo sapiens, MCF7, 72 h.
Another assay concerns HCT-116. Description: cells. The conditions noted are these: Homo sapiens, HCT-116, 72 h.

Description for HCT-116: Antiproliferative activity against human HCT-116 cells assessed as reduction in cell viability measured after 72 hrs
Description for MCF7: Antiproliferative activity against human MCF7 cells assessed as reduction in cell viability measured after 72 hrs

For `COc1cccc(-c2cc(NCc3ccc(OC)c(OC)c3)nc(N)n2)c1`, the half-maximal inhibitory concentration (IC50) in the assay on K562 is 70 nM; in the assay with MOLM-13, 30 nM; with HeLa, 60 nM; in the assay on MCF7, 40 nM; in the assay with HCT-116, 30 nM.
In the case of `CC(=O)c1cccc(-c2cc(NCc3ccc4c(c3)OCO4)nc(N)n2)c1`, the IC50 with K562, with MOLM-13, in the assay on HeLa, with MCF7 and in the assay on HCT-116 was over 2000 nM each time.
`Nc1nc(NCc2ccc3c(c2)OCO3)cc(-c2cccc(OCc3ccccc3)c2)n1`: the IC50 in the assay on K562 was 740 nM; in the assay on MOLM-13, 1010 nM; in the assay on HeLa, over 2000 nM; in the assay with MCF7 it was over 2000 nM; with HCT-116 it was 1050 nM.
Take `Nc1nc(NCc2ccc3c(c2)OCO3)cc(-c2ccc(Oc3ccccc3)cc2)n1`: the half-maximal inhibitory concentration (IC50) in the assay with K562, in the assay on MOLM-13, with HeLa, in the assay on MCF7 and with HCT-116 was over 2000 nM each time.
In the case of `CN(C)c1cccc(-c2cc(NCc3ccc4c(c3)OCO4)nc(N)n2)c1`, the IC50 in the assay on K562 came out at 300 nM; in the assay with MOLM-13 it was 360 nM; in the assay on HeLa, 280 nM; with MCF7 it was 530 nM; with HCT-116, 550 nM.
The corresponding values for `COc1cccc(-c2cc(N(C)Cc3ccc4c(c3)OCO4)nc(N)n2)c1` are 40 nM, 30 nM, 20 nM, 120 nM and 35 nM.
For `Nc1nc(NCc2ccc3c(c2)OCO3)cc(-c2ccc(-c3ccccc3)cc2)n1`, the half-maximal inhibitory concentration (IC50) in the assay with K562, in the assay with MOLM-13, in the assay on HeLa, in the assay with MCF7 and in the assay on HCT-116 was over 2000 nM each time.
On to `COc1ccc(-c2cc(NCc3ccc4c(c3)OCO4)nc(N)n2)cc1OC`, for which the IC50 in the assay on K562, with MOLM-13, in the assay on HeLa, in the assay on MCF7 and in the assay on HCT-116 was over 2000 nM in each case.
`COc1cccc(-c2cc(NCc3ccc4ccccc4c3)nc(N)n2)c1`: the 50% inhibitory concentration (IC50) in the assay with K562 was 320 nM; in the assay on MOLM-13, 130 nM; with HeLa it was 290 nM; in the assay on MCF7, 290 nM; in the assay with HCT-116 it was 130 nM.
Take `Nc1nc(NCc2ccc3c(c2)OCO3)cc(-c2ccc3c(c2)CCN3)n1`: the IC50 in the assay with K562 amounted to 20 nM; in the assay on MOLM-13, 90 nM; in the assay on HeLa it was 120 nM; with MCF7, 640 nM; in the assay on HCT-116 it was 300 nM.
On to `CC(C)(C)c1ccc(-c2cc(NCc3ccc4c(c3)OCO4)nc(N)n2)cc1`, for which the IC50 in the assay on K562, in the assay on MOLM-13, in the assay with HeLa, with MCF7 and in the assay on HCT-116 was over 2000 nM each time.
`COc1cc(OC)cc(-c2cc(NCc3ccc4c(c3)OCO4)nc(N)n2)c1`: the half-maximal inhibitory concentration (IC50) with K562 stood at 60 nM; in the assay with MOLM-13, 60 nM; in the assay on HeLa, 180 nM; in the assay on MCF7, 350 nM; in the assay with HCT-116 it was 330 nM.
In the case of `N#Cc1cccc(-c2cc(NCc3ccc4c(c3)OCO4)nc(N)n2)c1`, the IC50 in the assay on K562, in the assay with MOLM-13, with HeLa, in the assay on MCF7 and in the assay with HCT-116 was over 2000 nM each time.
Consider `COc1cccc(-c2cc(NCc3ccc(OC(F)(F)F)cc3)nc(N)n2)c1`, for which the IC50 with K562 was 260 nM; in the assay on MOLM-13, 280 nM; in the assay on HeLa, 430 nM; in the assay on MCF7, 590 nM; in the assay with HCT-116, 260 nM.
Take `Nc1nc(NCc2ccc3c(c2)OCO3)cc(-c2ccc(F)cc2)n1`: the 50% inhibitory concentration (IC50) in the assay on K562, with MOLM-13, in the assay on HeLa, in the assay with MCF7 and in the assay with HCT-116 was over 2000 nM each time.
With `COc1cccc(-c2cc(NCc3cc(F)cc(F)c3)nc(N)n2)c1`, the IC50 with K562 was 350 nM; with MOLM-13, 220 nM; in the assay with HeLa, 610 nM; in the assay on MCF7 it was 620 nM; with HCT-116 it was 450 nM.
On to `CC1(C)c2ccccc2-c2ccc(-c3cc(NCc4ccc5c(c4)OCO5)nc(N)n3)cc21`, for which the IC50 in the assay with K562, in the assay with MOLM-13, in the assay on HeLa, with MCF7 and with HCT-116 was over 2000 nM throughout.
For the compound `Nc1nc(NCc2ccc3c(c2)OCO3)cc(-c2cccc(-c3ccccc3)c2)n1`, the 50% inhibitory concentration (IC50) in the assay with K562, with MOLM-13, in the assay on HeLa, in the assay with MCF7 and in the assay with HCT-116 was over 2000 nM each time.
As for `Nc1nc(NCc2ccc3c(c2)OCO3)cc(-c2ccc3c(c2)OCCO3)n1`, the half-maximal inhibitory concentration (IC50) in the assay on K562 came out at 170 nM; with MOLM-13, 240 nM; with HeLa, 520 nM; in the assay with MCF7 it was 650 nM; with HCT-116, 710 nM.
With `COc1ccc(-c2cc(NCc3ccc4c(c3)OCO4)nc(N)n2)cn1`, the half-maximal inhibitory concentration (IC50) stood at 120 nM in the assay on K562; 190 nM in the assay on MOLM-13; 200 nM in the assay on HeLa; 1250 nM in the assay on MCF7; 820 nM in the assay on HCT-116.
For `Cc1ccc(-c2cc(NCc3ccc4c(c3)OCO4)nc(N)n2)cc1` the same measures were 150 nM, 200 nM, 170 nM, 450 nM and 420 nM.
Take `COc1cc(-c2cc(NCc3ccc4c(c3)OCO4)nc(N)n2)cc(OC)c1OC`: the IC50 in the assay on K562, with MOLM-13, in the assay with HeLa, with MCF7 and in the assay with HCT-116 was over 2000 nM throughout.
On to `COc1ccc(CNc2cc(-c3cccc(OC)c3)nc(N)n2)cc1`, for which the IC50 was 130 nM in the assay on K562; 120 nM in the assay with MOLM-13; 120 nM with HeLa; 620 nM with MCF7; 520 nM in the assay with HCT-116.
Turning to `Nc1nc(NCc2ccc3c(c2)OCO3)cc(-c2ccncc2)n1`, the half-inhibitory concentration (IC50) in the assay on K562, in the assay on MOLM-13, in the assay with HeLa, in the assay with MCF7 and with HCT-116 was over 2000 nM in each case.
As to `COc1cccc(-c2cc(N3CCc4cc(OC)c(OC)cc4C3)nc(N)n2)c1`, the IC50 is 330 nM with K562; 170 nM in the assay with MOLM-13; 230 nM in the assay with HeLa; 220 nM in the assay on MCF7; 210 nM in the assay with HCT-116.
As to `CCCN(Cc1ccc2c(c1)OCO2)c1cc(-c2cccc(OC)c2)nc(N)n1`, the concentration for half-maximal inhibition (IC50) in the assay with K562 is 80 nM; in the assay with MOLM-13 it was 80 nM; with HeLa, 80 nM; with MCF7 it was 110 nM; in the assay on HCT-116, 110 nM.
Turning to `Nc1nc(NCc2ccc3c(c2)OCO3)cc(-c2ccc3c(c2)OCO3)n1`, the IC50 in the assay with K562 stood at 70 nM; in the assay on MOLM-13 it was 110 nM; in the assay on HeLa, 180 nM; in the assay with MCF7, 1210 nM; with HCT-116, 390 nM.
With `CC(=O)Nc1cccc(-c2cc(NCc3ccc4c(c3)OCO4)nc(N)n2)c1`, the IC50 in the assay on K562, in the assay on MOLM-13, in the assay on HeLa, in the assay on MCF7 and in the assay with HCT-116 was over 2000 nM each time.
As for `C=CCN(Cc1ccc2c(c1)OCO2)c1cc(-c2cccc(OC)c2)nc(N)n1`, the IC50 in the assay with K562 was 60 nM; with MOLM-13, 60 nM; with HeLa, 110 nM; in the assay with MCF7, 60 nM; in the assay with HCT-116 it was 97 nM.
For `COc1cccc(-c2cc(NCc3ccc(F)cc3F)nc(N)n2)c1`, the IC50 in the assay with K562 came out at 120 nM; with MOLM-13, 130 nM; in the assay on HeLa it was 360 nM; with MCF7, 540 nM; in the assay with HCT-116, 180 nM.
Turning to `Nc1nc(NCc2ccc3c(c2)OCO3)cc(-c2ccoc2)n1`, the concentration for half-maximal inhibition (IC50) in the assay on K562 is 280 nM; in the assay with MOLM-13, 560 nM; in the assay on HeLa it was 910 nM; with MCF7, over 2000 nM; in the assay with HCT-116, 1010 nM.
For `Nc1nc(NCc2ccc3c(c2)OCO3)cc(-c2ccc3ccccc3c2)n1` the same measures were 1820 nM, over 2000 nM, over 2000 nM, over 2000 nM and 1670 nM.
Regarding `COc1cccc(-c2cc(NCc3cc(OC)c(OC)c(OC)c3)nc(N)n2)c1`, the IC50 worked out at 280 nM in the assay on K562; 110 nM in the assay with MOLM-13; 330 nM in the assay on HeLa; 280 nM in the assay on MCF7; 160 nM in the assay with HCT-116.
Turning to `CC(C)c1ccc(-c2cc(NCc3ccc4c(c3)OCO4)nc(N)n2)cc1`, the half-maximal inhibitory concentration (IC50) in the assay on K562, in the assay with MOLM-13, in the assay with HeLa, in the assay with MCF7 and in the assay on HCT-116 was over 2000 nM in each case.
On to `Cn1cc2c(-c3cc(NCc4ccc5c(c4)OCO5)nc(N)n3)cccc2n1`, for which the IC50 in the assay on K562, in the assay with MOLM-13, in the assay with HeLa, in the assay with MCF7 and in the assay on HCT-116 was over 2000 nM each time.
Regarding `COc1cccc(-c2cc(NCc3cccc(F)c3)nc(N)n2)c1`, the IC50 came out at 320 nM with K562; 120 nM in the assay on MOLM-13; 440 nM with HeLa; 360 nM with MCF7; 160 nM in the assay on HCT-116.
For `CCOc1ccc(-c2cc(NCc3ccc4c(c3)OCO4)nc(N)n2)cc1` the same measures were over 2000 nM, over 2000 nM, over 2000 nM, over 2000 nM and over 2000 nM.
Turning to `CC(C)c1cccc(-c2cc(NCc3ccc4c(c3)OCO4)nc(N)n2)c1`, the half-inhibitory concentration (IC50) with K562, in the assay on MOLM-13, in the assay on HeLa, with MCF7 and with HCT-116 was over 2000 nM each time.

For orientation: IC50 means the midpoint of a concentration-inhibition curve.
